Structures can show the parent of a compound that is named as a salt.
Experiments:
BACE-1 [1] = target: T1, BACE-1 (Homo sapiens, UniProt P56817); assay: HTRF cell based assay, Aβ1-40 peptide secreted by recombinant HEK293 cells; set-up: endogenous in cells; host or cells: recombinant HEK293 cells engineered to over-produce APP; settings: for EC50: Aβ1-40 secretion, recombinant HEK293 cells producing APP, overnight treatment, read-out: Cellular assay EC50 Ranges
Method: The cell based assay used to support the program utilized HTRF assay reagents from Cisbio (Catalogue number 62B40PEB) to quantify the amount of Aβ1-40 peptide secreted by recombinant HEK293 cells. The cells were engineered to produce high quantities of APP, the precursor for Aβ1-40 peptide, under hygromycin selection pressure. Briefly, cells were plated into 384-well microplates and allowed to settle for 2 hours prior to compound addition. Following overnight treatment with compound, the media containing secreted peptide was transferred into a low volume assay plate for quantification with HTRF immunoassay reagents. Adhering to the manufacturers protocol for quantification, a TR-FRET signal is obtained in the presence of the Aβ1-40 peptide following addition of a cryptate conjugated antibody and an XL665 conjugated antibody, each raised to a different epitope of the Aβ1-40 peptide. A low FRET signal is obtained when cells are treated with compounds that inhibit APP cleavage and peptide secretion.

BACE-1 [2] = target: T1, BACE-1; assay: LanthaScreen BACE1 biochemical assay (TR-FRET)
Method: Biochemical Assay to Assess Compounds for Inhibition of BACE-1
The LanthaScreen™ BACE1 assay kit from Invitrogen (Catalogue number PV4748) was used as the primary assay in the screening cascade.
Briefly, the test compound was incubated with the enzyme and substrate for 1 hour at room temperature in a reaction volume of 15 μl and then 5 nM terbium labelled anti-biotin antibody was added to stop the reaction and the solution incubated for a further 1 hour at room temperature. The microplate was read on an Envision plate reader fitted with a photometric 340 nm excitation filter and the amount of substrate that had been cleaved was represented by the TR-FRET ratio, calculated by dividing the Fluorescein emission signal (520 nm) by the Terbium emission signal (495 nm).

T1 sequence (P56817 46-501): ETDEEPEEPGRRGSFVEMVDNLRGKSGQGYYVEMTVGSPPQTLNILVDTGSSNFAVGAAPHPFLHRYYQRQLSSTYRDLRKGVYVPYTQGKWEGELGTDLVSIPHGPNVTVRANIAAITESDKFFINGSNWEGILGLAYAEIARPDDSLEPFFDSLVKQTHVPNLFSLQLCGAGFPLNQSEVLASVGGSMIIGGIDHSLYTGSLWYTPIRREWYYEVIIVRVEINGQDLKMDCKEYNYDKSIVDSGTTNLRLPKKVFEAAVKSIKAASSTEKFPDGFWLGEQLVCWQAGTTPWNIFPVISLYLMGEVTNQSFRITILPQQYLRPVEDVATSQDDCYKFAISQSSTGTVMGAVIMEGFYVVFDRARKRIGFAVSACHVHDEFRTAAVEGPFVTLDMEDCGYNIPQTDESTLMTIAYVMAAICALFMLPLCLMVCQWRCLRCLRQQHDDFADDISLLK

EC50 (BACE-1 [1]) | IC50 (BACE-1 [2]) | IC50 (BACE-1 [1]; reference inhibitor, inhibition of Aβ1-40 peptide secretion, 30,000 cells per well) | Structure (SMILES)
1 to 5 µM | 5 to 65 µM |  | N#Cc1cncc(-c2cc3c(s2)CCCC32CCSC(N)=N2)c1 (stereo not shown) [Example 19]
1 to 5 µM | 5 to 65 µM |  | COc1ccc(-c2cc3c(s2)CCCC32CCSC(N)=N2)cc1C#N (stereo not shown) [Example 22]
5 to 50 µM | < 1 µM |  | N#Cc1cccc(-c2cc3c(s2)CCCC32N=C(N)N(Cc3ccccc3)O2)c1 (stereo not shown) [Example 60]
5 to 50 µM | 5 to 65 µM |  | NC1=NC2(CCCc3sc(-c4cccc(-c5ccccn5)c4)cc32)CCS1 (stereo not shown) [Example 36]
1 to 5 µM | 5 to 65 µM |  | N#Cc1cccc(-c2cc3c(s2)CCC(Cc2ccccc2)C32CCSC(N)=N2)c1 (racemic) [Example 47, 3-(2′-amino-5-benzyl-5′,6,6′,7-tetrahydro-5H-spiro[benzo[b]thiophene-4,4′-[1,3]thiazine]-2-yl)benzonitrile]
5 to 50 µM | 1 to 5 µM |  | CN1OC2(CCCc3sc(-c4cccc(C(F)(F)F)c4)cc32)N=C1N (stereo not shown) [Example 58, 2′-methyl-2-(3-(trifluoromethyl)phenyl)-6,7-dihydro-2′H,5H-spiro[benzo[b]thiophene-4,5′-[1,2,4]oxadiazol]-3′-amine]
5 to 50 µM | 1 to 5 µM |  | NC1=NC2(CCCc3sc(-c4cccc(OC(F)(F)F)c4)cc32)CCS1 (stereo not shown) [Example 24]
1 to 5 µM | 1 to 5 µM |  | N#Cc1cccc(-c2cc3c(s2)CCCC32CCSC(N)=N2)n1 (stereo not shown) [Example 31]
5 to 50 µM | 1 to 5 µM |  | NC1=NC2(CCCc3cc(-c4cccc(-c5ccccc5)c4)sc32)CCS1 (stereo not shown) [Example 61]
1 to 5 µM | 5 to 65 µM |  | COc1cc(C#N)cc(-c2cc3c(s2)CCCC32CCSC(N)=N2)c1F (stereo not shown) [Example 11]
≤ 1 µM | 1 to 5 µM |  | COc1ccc(C#N)cc1-c1cc2c(s1)CCCC21CCSC(N)=N1 (stereo not shown) [Example 10]
5 to 50 µM | 5 to 65 µM |  | NC1=NC2(CCS1)CC(c1ccccc1)Cc1sc(-c3cccc(Br)c3)cc12 (racemic) [Example 43]
5 to 50 µM | < 1 µM |  | N#Cc1cccc(-c2cc3c(s2)CCCC32N=C(N)N(Cc3ccccc3)C2=O)c1 (stereo not shown) [Example 57, 3-(2′-amino-1′-benzyl-5′-oxo-1′,5′,6,7-tetrahydro-5H-spiro[benzo[b]thiophene-4,4′-imidazole]-2-yl)benzonitrile]
5 to 50 µM | 5 to 65 µM |  | NC1=NC2(CCCc3sc(-c4cncnc4)cc32)CCS1 (stereo not shown) [Example 7]
5 to 50 µM | 1 to 5 µM |  | N#Cc1cc(-c2cc3c(s2)CCCC32CCSC(N)=N2)cc(C(F)(F)F)c1 (stereo not shown) [Example 32]
5 to 50 µM | 5 to 65 µM |  | NC1=NC2(CCCc3sc(-c4cccc(CC(F)(F)F)c4)cc32)CCS1 (stereo not shown) [Example 39]
5 to 50 µM | 5 to 65 µM |  | N#Cc1cccc(-c2cc3c(s2)C2(CCC3)CCSC(N)=N2)c1 (stereo not shown) [Example 62]
5 to 50 µM | 1 to 5 µM |  | COc1ccc(-c2cccc(-c3cc4c(s3)CC(C)(C)CC43CCSC(N)=N3)c2)cc1 (stereo not shown) [Example 42]
1 to 5 µM | 1 to 5 µM |  | COc1cc(C#N)cc(-c2cc3c(s2)CCCC32CCSC(N)=N2)c1 (stereo not shown) [Example 17]
1 to 5 µM | 5 to 65 µM |  | COCC1Cc2sc(-c3cccc(C#N)c3)cc2C2(CCSC(N)=N2)C1 (racemic) [Example 45, 3-(2′-amino-6-(methoxymethyl)-5′,6,6′,7-tetrahydro-5H-spiro[benzo[b]thiophene-4,4′-[1,3]thiazine]-2-yl)benzonitrile, Hydrochloride Salt]
≤ 1 µM | 1 to 5 µM |  | N#Cc1cccc(-c2cc3c(s2)CCCC32CCSC(N)=N2)c1 (stereo not shown) [Example 1, 3-(2′-amino-5′,6,6′,7-tetrahydro-5H-spiro[benzo[b]thiophene-4,4′-[1,3]thiazine]-2-yl)benzonitrile, Formate Salt]
5 to 50 µM | 1 to 5 µM |  | NC1=NC2(CCCc3sc(-c4cccc(Oc5ccccc5)c4)cc32)CCS1 (stereo not shown) [Example 26]
5 to 50 µM | 1 to 5 µM |  | NC1=NC2(CCCc3sc(-c4cccc(C(F)(F)F)c4)cc32)ON1Cc1ccccc1 (stereo not shown) [Example 59]
5 to 50 µM | 1 to 5 µM |  | COc1cccc(-c2cccc(-c3cc4c(s3)CC(C)(C)CC43CCSC(N)=N3)c2)c1 (stereo not shown) [Example 41, 2-(3′-methoxybiphenyl-3-yl)-6,6-dimethyl-5′,6,6′,7-tetrahydro-5H-spiro[benzo[b]thiophene-4,4′-[1,3]thiazin]-2′-amine, Formate Salt]
5 to 50 µM | 1 to 5 µM |  | CN1C(=O)C2(CCCc3sc(-c4cccc(OC(F)(F)F)c4)cc32)N=C1N (stereo not shown) [Example 53]
5 to 50 µM | 5 to 65 µM |  | NC1=NC2(CCCc3sc(NC(=O)c4ccc(Br)cn4)cc32)CCS1 (stereo not shown) [Example 40]
5 to 50 µM | 5 to 65 µM |  | NC1=NC2(CCCc3sc(-c4ccc(F)cc4)cc32)CCS1 (stereo not shown) [Example 3]
5 to 50 µM | 1 to 5 µM |  | NC1=NC2(CCCc3sc(-c4ccc(-c5ccccc5)cc4)cc32)CCS1 (stereo not shown) [Example 29]

EC50 (BACE-1 [1]) | IC50 (BACE-1 [2]) | IC50 (BACE-1 [1]; reference inhibitor, inhibition of Aβ1-40 peptide secretion, 30,000 cells per well) | Structure (SMILES)
1 to 5 µM | 1 to 5 µM |  | N#Cc1cc(Cl)cc(-c2cc3c(s2)CCCC32CCSC(N)=N2)c1 (stereo not shown) [Example 34]
5 to 50 µM | 5 to 65 µM |  | CC1(C)CCc2sc(-c3cccc(C(F)(F)F)c3)cc2C12CCSC(N)=N2 (stereo not shown) [Example 46, 5,5-dimethyl-2-(3-(trifluoromethyl)phenyl)-5′,6,6′,7-tetrahydro-5H-spiro[benzo[b]thiophene-4,4′-[1,3]thiazin]-2′-amine]
≤ 1 µM | < 1 µM |  | N#Cc1cccc(-c2cc3c(s2)CCCC32CCSC(N)=N2)c1 (stereo in doubt) [Example 2, (R)-3-(2′-amino-5′,6,6′,7-tetrahydro-5H-spiro[benzo[b]thiophene-4,4′-[1,3]thiazine]-2-yl)benzonitrile]
5 to 50 µM | 1 to 5 µM |  | COc1ccc(-c2cccc(-c3cc4c(s3)CCCC43CCSC(N)=N3)c2)cc1 (stereo not shown) [Example 33]
5 to 50 µM | 5 to 65 µM |  | COC(=O)c1cccc(-c2cc3c(s2)CCCC32CCSC(N)=N2)c1 (stereo not shown) [Example 13]
5 to 50 µM | 1 to 5 µM |  | NC1=NC2(CCCc3sc(-c4cccc(-c5ccccc5)c4)cc32)CCS1 (stereo not shown) [Example 21]
5 to 50 µM | 1 to 5 µM |  | COc1ccc(-c2cccc(-c3cc4c(s3)CC(c3ccccc3)CC43CCSC(N)=N3)c2)cc1 (racemic) [Example 44]
1 to 5 µM | 5 to 65 µM |  | CN1C(=O)[C@]2(CCCc3sc(-c4cccc(C#N)c4)cc32)N=C1N (single isomer, unassigned) [Example 50]
5 to 50 µM | 5 to 65 µM |  | COc1ccc(-c2cc3c(s2)CCCC32CCSC(N)=N2)cn1 (stereo not shown) [Example 5]
1 to 5 µM | 1 to 5 µM |  | N#Cc1cc(-c2cc3c(s2)CCCC32CCSC(N)=N2)ccc1F (stereo not shown) [Example 14]
≤ 1 µM | 1 to 5 µM |  | N#Cc1ccc(F)c(-c2cc3c(s2)CCCC32CCSC(N)=N2)c1 (stereo not shown) [Example 15]
≤ 1 µM | < 1 µM |  | CN1C(=O)[C@@]2(CCCc3sc(-c4cccc(C#N)c4)cc32)N=C1N (single isomer, unassigned) [Example 51]
5 to 50 µM | 5 to 65 µM |  | NC1=NC2(CCCc3sc(-c4ccc5c(c4)OCO5)cc32)CCS1 (stereo not shown) [Example 8]
1 to 5 µM | 5 to 65 µM |  | CN1C(=O)C2(CCCc3sc(-c4cccnc4)cc32)N=C1N (stereo not shown) [Example 52]
 |  | 0.0002 µM | C[C@H](NC(=O)Cc1cc(F)cc(F)c1)C(=O)N[C@@H]1C(=O)N(C)c2ccccc2-c2ccccc21 [reference compound]
≤ 1 µM | 1 to 5 µM |  | N#Cc1ccc(Cl)c(-c2cc3c(s2)CCCC32CCSC(N)=N2)c1 (stereo not shown) [Example 16]
5 to 50 µM | 5 to 65 µM |  | NC1=NC2(CCCc3sc(-c4ccc5c(c4)CCO5)cc32)CCS1 (stereo not shown) [Example 6]
≤ 1 µM | < 1 µM |  | CN1C(=O)C2(CCCc3sc(-c4cccc(C#N)c4)cc32)N=C1N (stereo not shown) [Example 49, 3-(2′-amino-1′-methyl-5′-oxo-1′,5′,6,7-tetrahydro-5H-spiro[benzo[b]thiophene-4,4′-imidazole]-2-yl)benzonitrile]
1 to 5 µM | 5 to 65 µM |  | COc1ncc(-c2cc3c(s2)CCCC32CCSC(N)=N2)cc1C#N (stereo not shown) [Example 18]
5 to 50 µM | 1 to 5 µM |  | NC1=NC2(CCCc3sc(-c4cccc(C(F)(F)F)c4)cc32)CCS1 (stereo not shown) [Example 25]
1 to 5 µM | 1 to 5 µM |  | CN1C(=O)C2(CCCc3sc(-c4cccc(Cl)c4)cc32)N=C1N (stereo not shown) [Example 56]
1 to 5 µM | 5 to 65 µM |  | N#Cc1cc(-c2cc3c(s2)CCCC32CCSC(N)=N2)ccn1 (stereo not shown) [Example 20]
5 to 50 µM | 1 to 5 µM |  | NC1=NC2(CCCc3sc(-c4cccc(Cl)c4)cc32)CCS1 (stereo not shown) [Example 28]
1 to 5 µM | 5 to 65 µM |  | COCc1cccc(-c2cc3c(s2)CCCC32CCSC(N)=N2)c1 (stereo not shown) [Example 23]
5 to 50 µM | 1 to 5 µM |  | NC1=NC2(CCCc3sc(-c4cccc(OCc5ccccc5)c4)cc32)CCS1 (stereo not shown) [Example 30]
1 to 5 µM | 1 to 5 µM |  | Cc1cc(C#N)cc(-c2cc3c(s2)CCCC32CCSC(N)=N2)c1 (stereo not shown) [Example 35]
1 to 5 µM | < 1 µM |  | CN1C(=O)C2(CCCc3sc(-c4cccc(C(F)(F)F)c4)cc32)N=C1N (stereo not shown) [Example 54]

Reference: US9233982B2, “Spiro tetrahydro—benzothiophen derivatives useful for the treatment neurodegenerative diseases” (Ares Trading S.A., priority 2012, dated 2016)
